US20260285924A1, “PEPTIDE THERAPEUTICS” (priority 2023, published 2026)

Key:
A375-WT = assay: Pan-Cancer PepTile/PiTile fitness screen (lentiviral 40-mer peptide library, NGS abundance); assay type: cell-based, human; design: key: enrichment of each peptide's NGS abundance, early day vs Day 14; conditions: for A375-WT Fitness Score: Pan-Cancer library, peptide enrichment day 14 vs day 0
Text: FIGS. 13A-13D show Pan-Cancer PiTile Workflow. (A) The Pan-Cancer peptide library is composed of 1081 proteins tiled into 40-mer peptides at every 6 amino acids of the parental protein. The DNA-encoded library is cloned into lentiviral vectors and packaged into lentivirus. (B) A375 cell line was transduced with the Pan-Cancer PiTile library. Genomic DNA was then harvested at Day2 and Day 14 post-transduction and cell populations abundance expressing the different peptides were quantified using Next-Generation Sequencing (NGS). Peptide fitness score was then calculated by the abundance of each peptide at Day2 versus Day 14. Then the fitness signal is mapped over the original amino acid positions of the derived protein. (C) Coverage of the plasmid Pan-Cancer library and peptide-amplicons from Day2 and Day 14 replicated was determined by NGS. (D) Dot plot of the experimental result obtain from screening the Pan-Cancer library in A375 cell line.
(§1) A peptide tilling screen was performed in A375 similarly to a screen done in MDA-MB-231 (FIG. 1) but with a different lentiviral library. The library (Pan-Cancer library) is composed of 1020 genes tiled every 6 amino acids into 40-mer amino acid long peptides. The gene selection was based on their implication in oncogenesis either being as oncogenes or tumor suppressors. The list was built using recent literature that identified new cancer drivers as well as databases such as Uniprot keywords (KW-0656: Proto-oncogene, KW-0043: Tumor suppressor), and Gene Ontology terms (GO1900117: Apoptosis, GO1901979: Cell cycle checkpoint) (FIG. 2). Aside from Human genes, a list of viral genes was also included (KW-1121: Modulation of host cell cycle by virus) that play roles in high jacking cell cycle progression and thus in oncogenesis (FIG. 2).
(§2) The model of study is melanoma, and this disease is stratified into 4 molecular subtypes, BRAF mutants, NRAS mutants, KIT amplification, NF1 mutations (FIG. 3A). The most prominent mutations found in patient affected with metastatic melanomas are BRAF^V600E and NRAS^Q61K (FIG. 3B). RAS play a key role in oncogenesis and resistance to treatments. Indeed, RAS activating mutations is found in ~20% of all human cancers and secondary NRAS mutation leads to acquired resistance to BRAF targeted therapy such as vemurafenib. Thus, the screen was performed in an A375 cell line model which derived from human BRAF^V600E melanoma as well as an engineered A375 transduced with HA-NRAS^Q61K (FIG. 4A, B). Both cell lines grow at a similar rate but the A375-NRAS^Q61K display more than 10-fold resistance to vemurafenib treatment compared to parental A375 (FIG. 4C, D).
(§3) These cells were transduced with the Pan-Cancer library at a low multiplicity of infection (MOI=0.1-0.3). Then, genomic DNA was extracted at day 0 and day 14 post-transduction to quantify the abundance of peptide for each temporal conditions using Next-generation sequencing. Each experimental replicates were deep sequenced with at least 150 million reads and show a coverage between 82-90% of the initial Pan-Cancer Peptide library (FIG. 5). Then, for each individual peptides a cellular fitness score was calculated based on their enrichment between day 0 and day 14. 8090 peptides negatively affecting growth of A375-WT were identified and 8153 peptides for the A375-NRAS^Q61K cell line (FIG. 6). […] Those common hits are found to be tiles from ~100 genes of the Pan-Cancer gene list and show a substantial biological function clustering.
We built a DNA-encoded peptide library composed of all known Human oncogenes and Tumor Suppressors that we fragmented in 40 amino acid long peptides, the Pan-Cancer library. Using lentiviral expression system, we transduced the Pan-Cancer library in A375 cell line. After 14 days of growth, the frequency of each peptide is measured by NGS and this reveal which peptides affect cell fitness. […]

A375-NRAS^Q61K = assay: Pan-Cancer PepTile fitness screen (lentiviral 40-mer peptide library, NGS abundance); assay type: cell-based, human; conditions: peptide enrichment day 14 vs day 0
Method: as §1, §2, §3

| Substance | A375-WT Fitness Score (A375-WT) | A375-NRAS Fitness Score (A375-NRAS^Q61K) | Fitness score (A375-WT; PanCancer Peptide Table (Table 3), lentivirally expressed 40-mer peptide tile, negative = depleted) | Fitness score (A375-WT; PanCancer Peptide Table, 40-mer peptide tile expressed from lentiviral library) |
| --- | --- | --- | --- | --- |
| ELF4_39: 40-mer peptide tile of ELF4, AA start position 228, ETS domain | −2.44 | −1.35 | – | – |
| EP300_99: 40-mer peptide tile of EP300, AA start position 588, KIX domain | −3.20 | 0.86 | – | – |
| FER_38: 40-mer peptide tile of FER, AA start position 222, F-BAR domain (LKGIFDEYSQITSLVTEEIVNVHKEIQMSVEQIDPSTEYN; UniProt P16591 222-261, looked up, fragment) | −2.21 | −1.48 | – | – |
| FLCN_43: 40-mer peptide tile of FLCN, AA start position 252, Longin domain (ACLHTSFAWLLKACGSRLTEKLLEGAPTEDTLVQMEKLAD; UniProt Q8NFG4 252-291, looked up, fragment) | −1.76 | −1.99 | – | – |
| FZD3_55: 40-mer peptide tile of FZD3, AA start position 324, Transmembrane domain (IEKKALLFHASAWGIPGTLTIILLAMNKIEGDNISGVCFV; UniProt Q9NPG1 324-363, looked up, fragment) | −3.21 | −3.27 | – | – |
| MAD1L1_78: 40-mer peptide tile of MAD1L1, AA start position 462, Coiled Coil domain (ELGGQKQRADMLEMELKMLKSQSSSAEQSFLFSREEADTL; UniProt Q9Y6D9 462-501, looked up, fragment) | −4.42 | −3.52 | – | – |
| MTOR_42: 40-mer peptide tile of MTOR, AA start position 246, HEAT domain | −3.36 | 1.01 | −3.37 | – |
| PIK3CA_38: 40-mer peptide tile of PIK3CA, AA start position 222, RBD (AEAIRKKTRSMLLSSEQLKLCVLEYQGKYILKVCGCDEYF; UniProt P42336 222-261, looked up, fragment) | −2.72 | −0.85 | – | – |
| SMARCA4_257: 40-mer peptide tile of SMARCA4, AA start position 1536, Bromodomain (AQTFNLEGSLIYEDSIVLQSVFTSVRQKIEKEDDSEGEES; UniProt P51532 1536-1575, looked up, fragment) | −4.98 | −0.54 | – | – |
| SMC3_124: 40-mer peptide tile of SMC3, AA start position 738, Coiled Coil domain (EMKMLKEKRQQSEKTFMPKQRSLQSLEASLHAMESTRESL; UniProt Q9UQE7 738-777, looked up, fragment) | −3.08 | 0.13 | – | −3.09 |
| SUZ12_23: 40-mer peptide tile of SUZ12, AA start position 132, WDB1 domain (FKVDDMLSKVEKMKGEQESHSLSAHLQLTFTGFFHKNDKP; UniProt Q15022 132-171, looked up, fragment) | −2.12 | −0.27 | – | – |
